Source: US11197836B2, “Topical vasoconstrictor preparations and methods for protecting cells during cancer chemotherapy and radiotherapy” (WISCONSIN ALUMNI RESEARCH FOUNDATION, priority 2005, dated 2021)
“Also recorded” adds a separate entry of the source. Counter-ions that a name gives are not always drawn. Like-named read-outs stand apart in the source and are kept apart here.

Legend:
[1] = Sustained solubility of norepinephrine tartrate in ethanol:PG:water mixtures, Example 7; type: physicochemical; conditions: 600 mM
Description: Solvent composed of ethanol:propylene glycol (PG):water in the percentages (vol:vol:vol)·specified in FIG. 3 was then added to each vial. Vials were heated as necessary to dissolve norepinephrine by touching vials to a boiling water bath for one second increments and then vortexing until clear. Sealed vials were left at room temperature for 24 hours, and at 4° C. for 24 hours. During the two 24 hour incubations, liquid in each vial was examined using a magnifying glass to identify the formation of any crystalline material. If crystals formed, norepinephrine was noted as “insoluble” at that solvent mixture.

dermal vasculature = assay: Exclusion of systemic dye from rat skin (colorimeter), Example 18; type: in vivo; conditions: 300 mM in 50:30:20 vehicle, 30 min time point
Description: 400 μl of a black dye solution was injected into each test rat as an i.p. bolus at 10 min after topical treatment with either 300 mM norepinephrine or vehicle alone. Colorimeter measurements of skin color in patches were made and the progression was recorded from 0 through 30 min. The change in colorimeter units between the 0 min reading and readings at indicated time points are plotted in FIG. 15. Colorimeter measurements of skin color were made using a CR-400 colorimeter (Minolta Corp.).

adrenergic receptor = conditions: cited from earlier work
[2] = test system: radiodermatitis of rat skin; assay: Radiodermatitis prevention after 27 Gy 6 MeV electron beam irradiation of rat skin, Example 14; type: in vivo; conditions: 300 mM topical
Description: Adult rats ([…]) were clipped to remove the coat covering their dorsal backs. Aliquots (100 μl) of topical drug formulation containing 300 mM norepinephrine were applied once to the backs of the rats, and at set time points afterward, a rectangle (1.5 cm×3 cm) within the topical treatment field received a 27 Gy dose of 6 MeV electrons from a linear accelerator. Animals were anesthetized with 30 μg/gm b.w. sodium pentobarbital prior to irradiation. Following irradiation, rats were returned to cages, and 13 days later the severity of radiodermatitis within the irradiated rectangular field was visually scored and photographed. A “Radiodermatitis Severity Score” between 0 and 100 represents the percentage of the irradiated field that is covered by scab material on day 13 following irradiation.

rat skin = assay: Penetration of topically applied dye into rat skin; type: in vivo; conditions: applied to rat skin in an alcohol:water solution
From the text: It is preferred for certain embodiments of the invention directed to skin applications to optimize ethanol, propylene glycol, and water percentages to enable sufficient delivery of epinephrine, phenylephrine, norepinephrine, or methoxamine to the skin vasculature, to achieve transient, vasculature constriction, and by so-doing, confer protection to the stem cells of the epidermis and hair follicle. The primary skin vasculature is located within the dermis, largely creating a vascular web surrounding the hair follicle bulbs (shown in FIG. 1). Topical drug delivery to this vasculature is primarily achieved by “transfolicular” delivery, i.e., topically-applied alcohol:water solutions travel within the hair shaft channels to the hair follicle bulb, and then diffuse through the stem cells that comprise the hair follicle bulb to access the dermal vasculature surrounding the bulb. For topical solutions to access dermal vasculature, a minimum percentage of alcohol in the topical delivery vehicle is preferred to enable: i) dissolution or softening of sebaceous oil present in human hair shaft channels, and ii) penetration of the oil-stratum corneum matrix.

human skin [3] = assay: Human skin blanch 20 min after topical application, Example 6; type: in vivo; conditions: applied to unbroken human skin
Description: (§1) The approximate amount of heat required to dissolve the vasoconstrictor salt in each diluent is indicated. Once diluted, samples were sealed and held at room temperature (22° C.) for 24 hours and then at 4° C. for 24 hours. Skin blanch induced by the topical formulation was assessed by applying freshly made, clear formulation to human skin shortly after initial mixing. Drug solutions were monitored for the appearance of precipitated material over a 48 hour observation period.

human skin [4] = conditions: for Skin Blanch Response: human arm skin; for blanching of the skin: human skin, over the 180 min observation period
[5] = test system: radiation-induced oral mucositis; conditions: for Muscositis Severity Score: score 0-17, day 16
Description: In an assay based upon Alvarez eta/. […] Additional topical formulation was applied with Q-tip to uniformly cover the everted, interior surface of the cheek pouch. After 20 min, the vehicle-coated, immobilized cheek pouch was taped into position over a 1.5 cm diameter window bored through a 2.5 cm thick lead plate. The sleeping hamster was immobilized on a small shelf on the plate that enabled cheek pouch irradiation through the window.
After irradiation, the cheek pouch was rinsed with water, blotted and reverted. The severity of mucositis in the irradiated cheek pouch was scored 16 days later using the following criteria.

[6] = Dissolution and 24 hr solution status of vasoconstrictor salts in ethanol:PG:water diluents, Example 6; type: physicochemical; conditions: at the concentrations required to induce an acceptable blanch response
Description: Aliquots of each vasoconstrictor salt were weighed into glass test tubes. The volume of liquid necessary to achieve the indicated final drug concentration was then added.
as §1

cheek pouch oral mucosa = assay: Blanch response of hamster cheek pouch oral mucosa, Example 15; type: in vivo, Syrian Golden hamster; conditions: 10 mM in 5:1:94 ethanol:HPMC:PBS, after 30 min
Description: Hamsters were anesthetized with sodium pentobarbital, the cheek pouch was everted with forceps, rinsed with water and blotted, and immobilized on a 2 cm diameter inert plastic disk using stainless steel clips (see panels in FIG. 11). […] Digital images were recorded.

[7] = test system: radiation-induced oral mucositis; assay: Radiation-induced oral mucositis in hamster cheek pouch, Example 16; conditions: hamster cheek pouch
[8] = blood plasma, following intravenous infusion or oral administration; cited from earlier work
coat density = conditions: ten-day old Sprague-Dawley rats
Description: On day 20 of life, coat density on the dorsal back of each animal was visually scored as a percentage of the normal coat density for an untreated 20 day old rat. At 30 μg/gm b.w.

[9] = test system: radiation-induced dermatitis of rat skin; conditions: for Radiation Dermatitis Score (% of Irradiated 4.5 cm^2 Area Free of Scab material): rat, 8.7 Gy γ, scored 13 days later
[10] = test system: chemotherapy-induced alopecia; conditions: 950 mM topical four times in two hr, 10 day old rat pups, Cytoxan 30 μg/gm b.w. i.p.
[11] = test system: radiation-induced or Cytoxan-induced alopecia; conditions: neonate rat, day 20 of life
From the text: The severity of the alopecia was scored nine days later—on day 20 of life.

With `NC[C@H](O)c1ccc(O)c(O)c1` [norepinephrine] the “solubility (no crystals over 24 hr room temperature and 24 hr 4° C.)” value ([1]; 55:20:25 ethanol:PG:water) was “not soluble”, the “solubility (no crystals over 24 hr room temperature and 24 hr 4° C.)” value ([1]; around 50:30:20 ethanol:PG:water) was “areas of solubility” and the “solubility (no crystals over 24 hr room temperature and 24 hr 4° C.)” value ([1]; around 60:10:30 ethanol:PG:water) was “areas of solubility”. For the same compound, the “reduction of delivery of systemic, blood-borne dye to treated skin” value (dermal vasculature) was 39%, the “agonism of the β2 receptor” value (adrenergic receptor) was “not an agonist of the β2 receptor” and the “binding affinity (potency) for the α1 adrenergic receptor” value (adrenergic receptor) was “slightly better than for epinephrine”. The “protection against Grade 2 dermatitis” value [2] was “complete protection”.

For `CCN(CC)c1ccc2nc3c4ccccc4c(=O)cc-3oc2c1` [Nile Red], the skin penetration (rat skin) was “penetrates both the stratum corneum and underlying epidermis”.

With `CNC[C@H](O)c1cccc(O)c1` [phenylephrine, phenylephrine-HCl] the “potency to induce skin blanch” value (human skin [3]) was “lacks the potency to adequately induce skin blanch”, the “Skin Blanch Response” value (human skin [4]; 30 mM in 60:30:10 vehicle, 180 min) was 0% and the “Skin Blanch Response” value (human skin [4]; 150 mM in 60:30:10 vehicle, 180 min) was 35%. The “Skin Blanch Response” value (human skin [4]; 0.25% (12.3 mM) in water, 180 min) was 0%, the “blanching of the skin” value (human skin [4]; 0.25% aqueous solution) was “no detectable blanching” and the “Skin Blanch Response” value (human skin [4]; 300 mM in 60:30:10 vehicle, 180 min) was 50%. The “Skin Blanch Response” value (human skin [4]; 1000 mM in 60:30:10 vehicle, 180 min) was 60%, the “Skin Blanch Response” value (human skin [4]; 2500 mM in 60:30:10 vehicle, 180 min) was 70% and the “Muscositis Severity Score” value ([5]; 12.3 mM, vehicle 0:5:3:92, irradiation 24 min, Experiment B) was 5.0 ± 0.1. The “solubility in topical vehicles” value [6] was “not stably soluble”, the “appearance of cheek pouch (blanch)” value (cheek pouch oral mucosa) was “white and translucent” and the “protection against γ radiation-induced mucositis” value ([7]; 10 mM topical) was “completely protective; also recorded: completely preventing”. For the same compound, the mucosal pathology ([7]; large excess doses combined with 24 min of irradiation (40 Gy)) was “severe mucosal pathology” and the mucosal pathology ([7]; large excess doses without irradiation) was “no discernible mucosal pathology”.

In the case of `O=P1(N(CCCl)CCCl)NCCCO1` (stereo not drawn) [Cytoxan, cyclophosphamide], the clearance half-life [8] is listed as “about one”, the “coat on day 20” value (coat density; 20 μg/gm b.w. and lower doses i.p.) is listed as “full coats” and the “coat on day 20” value (coat density; 30 μg/gm b.w. and higher doses i.p.) is listed as “nude”.

In the case of `CNC[C@H](O)c1ccc(O)c(O)c1` [epinephrine, epinephrine-HCl], the “Skin Blanch Response” value (human skin [4]; 2 mM in 50:25:25 ethanol:propylene glycol:water, 45 min) is reported as 10%, the “Skin Blanch Response” value (human skin [4]; 2 mM in 50:25:25 ethanol:propylene glycol:water, 60 min) is reported as 40% and the “Skin Blanch Response” value (human skin [4]; 2 mM in 50:25:25 ethanol:propylene glycol:water, 150 min) is reported as 75%. The “Skin Blanch Response” value (human skin [4]; 10 mM in 50:25:25 ethanol:propylene glycol:water, 45 min) was 40%, the “Skin Blanch Response” value (human skin [4]; 10 mM in 50:25:25 ethanol:propylene glycol:water, 60 min) was 60% and the “Skin Blanch Response” value (human skin [4]; 10 mM in 50:25:25 ethanol:propylene glycol:water, 150 min) was 90%. For the same compound, the “Skin Blanch Response” value (human skin [4]; 50 mM in 50:25:25 ethanol:propylene glycol:water, 45 min) was 30%, the “Skin Blanch Response” value (human skin [4]; 50 mM in 50:25:25 ethanol:propylene glycol:water, 60 min) was 50% and the “Skin Blanch Response” value (human skin [4]; 50 mM in 50:25:25 ethanol:propylene glycol:water, 150 min) was 85%. For the same compound, the “Skin Blanch Response” value (human skin [4]; 0.1% (4.55 mM) in water, 45 min) was 0%, the “Skin Blanch Response” value (human skin [4]; 0.1% (4.55 mM) in water, 60 min) was 0% and the “Skin Blanch Response” value (human skin [4]; 0.1% (4.55 mM) in water, 150 min) was 0%. For the same compound, the “Skin Blanch Response” value (human skin [4]; 0.1% (4.55 mM) in water, 180 min) was 0%, the “blanching of the skin” value (human skin [4]; 0.1% aqueous solution) was “no detectable blanching” and the “Skin Blanch Response” value (human skin [4]; 100 mM in 50:25:25 ethanol:propylene glycol:water, 45 min) was 85%. For the same compound, the “Skin Blanch Response” value (human skin [4]; 100 mM in 50:25:25 ethanol:propylene glycol:water, 60 min) was 90%, the “Skin Blanch Response” value (human skin [4]; 100 mM in 50:25:25 ethanol:propylene glycol:water, 150 min) was 90% and the “Skin Blanch Response” value (human skin [4]; 1000 mM in 50:25:25 ethanol:propylene glycol:water, 45 min) was 85%. The “Skin Blanch Response” value (human skin [4]; 1000 mM in 50:25:25 ethanol:propylene glycol:water, 60 min) was 90%, the “Skin Blanch Response” value (human skin [4]; 1000 mM in 50:25:25 ethanol:propylene glycol:water, 150 min) was 95% and the “Muscositis Severity Score” value ([5]; 0.05 mM, vehicle 5:5:3:87 ethanol:propylene glycol:HPMC:PBS, irradiation 20 min, Experiment C) was 7.5. For the same compound, the “Muscositis Severity Score” value ([5]; 0.10 mM, vehicle 5:5:3:87, irradiation 20 min, Experiment C) was 5.0, the “Muscositis Severity Score” value ([5]; 0.20 mM, vehicle 5:5:3:87, irradiation 20 min, Experiment C) was 3.0 and the “Muscositis Severity Score” value ([5]; 0.40 mM, vehicle 5:5:3:87, irradiation 20 min, Experiment C) was 0. The “Muscositis Severity Score” value ([5]; 13.5 mM epinephrine + 12.3 mM epinephrine, vehicle 0:5:3:92, irradiation 24 min, Experiment B) was 11.7 ± 0.7, the “Muscositis Severity Score” value ([5]; 100.00 mM, vehicle 5:0:1:94, irradiation 24 min, Experiment A) was 14.5 ± 2.4 and the “Muscositis Severity Score” value ([5]; 500.00 mM, vehicle 5:0:1:94, irradiation 24 min, Experiment A) was 9.0. For the same compound, the “lowest topical concentration with discernible radioprotection of a mucosal site” value ([5]; hamster cheek pouch) was 50 µM, the “Radiation Dermatitis Score (% of Irradiated 4.5 cm^2 Area Free of Scab material)” value ([9]; 20 mM, vehicle 50:30:20, four topical applications) was 32% and the “Radiation Dermatitis Score (% of Irradiated 4.5 cm^2 Area Free of Scab material)” value ([9]; 300 mM, vehicle 25:30:45, four topical applications) was 95%. For the same compound, the “Radiation Dermatitis Score (% of Irradiated 4.5 cm^2 Area Free of Scab material)” value ([9]; 1000 mM, vehicle 50:30:20, four topical applications) was 100%, the “concentration applied to skin required to confer protection against radiation dermatitis” value ([9]; rat skin) was greater than 20 mM and the “appearance of cheek pouch (blanch)” value (cheek pouch oral mucosa) was “white and translucent”. The “coat protection on day 20” value [10] was “partial coat protection”, the “Alopecia Score (% Normal Coat Density in Topical Treatment Area)” value ([11]; 20 mM, vehicle 50:25:25, Irradiation 7.5 Gy whole-body) was 6% and the “Alopecia Score (% Normal Coat Density in Topical Treatment Area)” value ([11]; 100 mM, vehicle 50:25:25, Irradiation 7.5 Gy whole-body) was 33%. For the same compound, the “Alopecia Score (% Normal Coat Density in Topical Treatment Area)” value ([11]; 500 mM, vehicle 50:25:25, Irradiation 7.5 Gy whole-body) was 45%, the “Alopecia Score (% Normal Coat Density in Topical Treatment Area)” value ([11]; 1000 mM, vehicle 0:100:0, Irradiation 7.5 Gy whole-body) was 95% and the “Alopecia Score (% Normal Coat Density in Topical Treatment Area)” value ([11]; 1000 mM, vehicle 25:30:45, Cytoxan 32 μ/gm b.w. i.p.) was 40%. The “Alopecia Score (% Normal Coat Density in Topical Treatment Area)” value ([11]; 1000 mM, vehicle 25:30:45 ethanol:propylene glycol:water, alopecia-inducing agent None) was 100% and the “Alopecia Score (% Normal Coat Density in Topical Treatment Area)” value ([11]; 1000 mM, vehicle 50:25:25, Irradiation 7.5 Gy whole-body) was 94%.
